Ki data for one molecule are collected here from BindingDB's records for doi:10.1007/bf00176615 (Sandoz Pharma, 1992).

In test [1] the target is Mu-type opioid receptor (Rattus norvegicus, UniProt P33535).
Test [2] concerns the target 5-hydroxytryptamine receptor 2A (Rattus norvegicus, UniProt P14842).
Test [3] deals with T1, Alpha-2A adrenergic receptor (Bos taurus, UniProt Q28838).
T1 sequence (Q28838 whole entry): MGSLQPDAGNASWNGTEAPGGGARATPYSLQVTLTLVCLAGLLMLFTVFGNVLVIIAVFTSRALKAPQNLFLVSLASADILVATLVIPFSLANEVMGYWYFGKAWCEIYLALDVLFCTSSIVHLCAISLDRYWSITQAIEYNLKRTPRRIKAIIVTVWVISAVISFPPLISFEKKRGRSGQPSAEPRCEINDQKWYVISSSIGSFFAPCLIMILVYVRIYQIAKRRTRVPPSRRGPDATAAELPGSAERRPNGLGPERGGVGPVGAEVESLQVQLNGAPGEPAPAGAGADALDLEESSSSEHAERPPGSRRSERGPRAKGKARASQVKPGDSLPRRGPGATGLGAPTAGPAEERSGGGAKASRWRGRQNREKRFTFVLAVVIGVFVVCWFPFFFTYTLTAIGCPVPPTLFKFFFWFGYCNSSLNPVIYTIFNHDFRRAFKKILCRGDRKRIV

Test [4] deals with T2, Alpha-1A adrenergic receptor (Bos taurus, UniProt P18130).
T2 sequence (P18130 whole entry): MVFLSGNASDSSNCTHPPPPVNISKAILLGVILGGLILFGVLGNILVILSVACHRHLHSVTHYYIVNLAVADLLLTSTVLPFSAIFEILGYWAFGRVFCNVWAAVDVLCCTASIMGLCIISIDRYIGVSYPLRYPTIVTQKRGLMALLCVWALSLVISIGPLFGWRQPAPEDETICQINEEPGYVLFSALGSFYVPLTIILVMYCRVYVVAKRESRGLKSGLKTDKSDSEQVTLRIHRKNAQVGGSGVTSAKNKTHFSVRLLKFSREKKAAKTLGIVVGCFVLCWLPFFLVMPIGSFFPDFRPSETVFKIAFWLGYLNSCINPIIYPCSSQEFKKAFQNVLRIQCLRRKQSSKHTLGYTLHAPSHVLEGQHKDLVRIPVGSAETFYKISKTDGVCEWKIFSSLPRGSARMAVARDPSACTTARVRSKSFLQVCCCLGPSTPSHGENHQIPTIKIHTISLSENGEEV

The target of test [5] is 5-hydroxytryptamine 1D receptor (Bos taurus, UniProt Q8MI13).
5-hydroxytryptamine 1D receptor, sequence (Q8MI13 whole entry): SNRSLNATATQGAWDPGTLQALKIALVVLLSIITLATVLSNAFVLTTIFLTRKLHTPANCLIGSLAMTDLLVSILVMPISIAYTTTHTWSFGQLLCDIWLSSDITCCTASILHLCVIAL
The target of test [6] is T3, 5-hydroxytryptamine receptor 2C (Sus scrofa, UniProt G7ZKZ7).
T3 sequence (G7ZKZ7 whole entry): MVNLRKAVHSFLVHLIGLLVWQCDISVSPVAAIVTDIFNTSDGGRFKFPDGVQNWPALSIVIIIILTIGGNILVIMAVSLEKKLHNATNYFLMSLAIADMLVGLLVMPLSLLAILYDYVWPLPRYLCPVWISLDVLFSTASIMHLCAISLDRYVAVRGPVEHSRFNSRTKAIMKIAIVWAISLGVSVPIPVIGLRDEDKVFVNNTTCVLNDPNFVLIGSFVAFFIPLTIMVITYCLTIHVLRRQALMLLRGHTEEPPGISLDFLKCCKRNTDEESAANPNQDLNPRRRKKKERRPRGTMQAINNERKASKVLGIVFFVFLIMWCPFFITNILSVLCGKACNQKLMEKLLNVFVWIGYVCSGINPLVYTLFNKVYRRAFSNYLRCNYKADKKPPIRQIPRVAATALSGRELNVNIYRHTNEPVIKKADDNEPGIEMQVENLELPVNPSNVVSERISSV

Some results are limits rather than exact numbers.

5-hydroxytryptamine receptor 2A, sequence (P14842 whole entry): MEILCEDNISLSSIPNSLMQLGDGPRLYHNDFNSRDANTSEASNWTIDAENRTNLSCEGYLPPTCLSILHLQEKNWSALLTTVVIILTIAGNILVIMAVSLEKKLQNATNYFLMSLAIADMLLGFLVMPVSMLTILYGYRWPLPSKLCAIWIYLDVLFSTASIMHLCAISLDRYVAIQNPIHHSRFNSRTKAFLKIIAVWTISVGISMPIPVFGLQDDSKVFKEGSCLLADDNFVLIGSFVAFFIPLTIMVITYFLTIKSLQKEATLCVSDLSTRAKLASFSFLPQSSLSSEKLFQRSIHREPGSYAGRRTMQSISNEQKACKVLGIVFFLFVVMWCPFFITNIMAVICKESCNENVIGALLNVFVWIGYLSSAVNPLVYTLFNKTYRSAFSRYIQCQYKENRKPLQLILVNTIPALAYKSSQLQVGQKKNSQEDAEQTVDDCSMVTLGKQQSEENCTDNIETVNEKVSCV
Mu-type opioid receptor, sequence (P33535 whole entry): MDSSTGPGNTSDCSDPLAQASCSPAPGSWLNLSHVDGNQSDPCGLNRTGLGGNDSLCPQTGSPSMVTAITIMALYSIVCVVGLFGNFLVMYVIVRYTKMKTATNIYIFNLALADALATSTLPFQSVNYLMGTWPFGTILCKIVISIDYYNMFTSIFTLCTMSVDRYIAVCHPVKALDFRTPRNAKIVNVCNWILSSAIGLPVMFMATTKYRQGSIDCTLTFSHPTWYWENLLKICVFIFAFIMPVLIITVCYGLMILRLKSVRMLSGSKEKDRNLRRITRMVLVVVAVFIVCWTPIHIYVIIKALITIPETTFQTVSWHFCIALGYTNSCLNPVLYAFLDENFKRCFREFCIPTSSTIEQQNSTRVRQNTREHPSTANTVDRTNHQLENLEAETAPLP

What is called Ki is a dissociation constant, usually derived from enzyme kinetics or from competition with a known ligand. Consider `CCN(CC)CCOC(=O)c1cc(Cl)c(N)cc1OC` [SDZ-205557], for which the Ki in test [1] was over 10 µM; in test [2] it was over 10 µM; in test [3] it was over 10 µM; in test [4] it was 6.31 µM; in test [5] it was 2.51 µM; in test [6], 3.98 µM.
